Results published in the NIST ThermoML archive (doi:10.1021/je050060q).

Test: xn = mol fraction of the nth substance listed
Conditions: 101.3 kPa, Liquid; for mass density: Pycnometric method

CCCCCCCCCCCCCCCC [hexadecane] + CCCCCC
Conditions	mass density [kg/m3]	speed of sound [m/s]
293.15 K, x2 = 0.1	768.1	1341
293.15 K, x2 = 0.2	762.36	1327
293.15 K, x2 = 0.3	756.02	1314
293.15 K, x2 = 0.4	748.67	1297
293.15 K, x2 = 0.5	740.14	1277
293.15 K, x2 = 0.6	729.79	1254
293.15 K, x2 = 0.7	717.46	1228
293.15 K, x2 = 0.8	702.3	1196
293.15 K, x2 = 0.9	683.23	1151
298.15 K, x2 = 0.1	764.7	1322
298.15 K, x2 = 0.2	758.88	1308
298.15 K, x2 = 0.3	752.56	1295
298.15 K, x2 = 0.4	745.03	1277
298.15 K, x2 = 0.5	736.52	1257
298.15 K, x2 = 0.6	726.08	1234
298.15 K, x2 = 0.7	713.68	1207
298.15 K, x2 = 0.8	698.4	1175
298.15 K, x2 = 0.9	679.04	1129
303.15 K, x2 = 0.1	761.25	1304
303.15 K, x2 = 0.2	755.4	1289
303.15 K, x2 = 0.3	749.09	1275
303.15 K, x2 = 0.4	741.49	1258
303.15 K, x2 = 0.5	732.9	1237
303.15 K, x2 = 0.6	722.32	1215
303.15 K, x2 = 0.7	709.86	1187
303.15 K, x2 = 0.8	694.47	1154
303.15 K, x2 = 0.9	674.8	1108
308.15 K, x2 = 0.1	757.78	1285
308.15 K, x2 = 0.2	751.9	1270
308.15 K, x2 = 0.3	745.61	1256
308.15 K, x2 = 0.4	737.93	1238
308.15 K, x2 = 0.5	729.25	1217
308.15 K, x2 = 0.6	718.63	1195
308.15 K, x2 = 0.7	706.03	1167
308.15 K, x2 = 0.8	690.5	1133
308.15 K, x2 = 0.9	670.53	1086
313.15 K, x2 = 0.1	754.31	1266
313.15 K, x2 = 0.2	748.41	1251
313.15 K, x2 = 0.3	741.92	1237
313.15 K, x2 = 0.4	734.37	1219
313.15 K, x2 = 0.5	725.59	1198
313.15 K, x2 = 0.6	714.88	1175
313.15 K, x2 = 0.7	702.18	1146
313.15 K, x2 = 0.8	686.49	1112
313.15 K, x2 = 0.9	666.22	1065
318.15 K, x2 = 0.1	750.84	1248
318.15 K, x2 = 0.2	744.91	1232
318.15 K, x2 = 0.3	738.42	1219
318.15 K, x2 = 0.4	730.8	1200
318.15 K, x2 = 0.5	721.92	1178
318.15 K, x2 = 0.6	711.12	1156
318.15 K, x2 = 0.7	698.3	1126
318.15 K, x2 = 0.8	682.45	1091
318.15 K, x2 = 0.9	661.87	1044
323.15 K, x2 = 0.1	747.36	1230
323.15 K, x2 = 0.2	741.4	1214
323.15 K, x2 = 0.3	734.92	1200
323.15 K, x2 = 0.4	727.21	1181
323.15 K, x2 = 0.5	718.23	1159
323.15 K, x2 = 0.6	707.34	1136
323.15 K, x2 = 0.7	694.38	1107
323.15 K, x2 = 0.8	678.36	1071
323.15 K, x2 = 0.9	657.47	1023
328.15 K, x2 = 0.1	743.88	1211
328.15 K, x2 = 0.2	737.89	1196
328.15 K, x2 = 0.3	731.41	1182
328.15 K, x2 = 0.4	723.62	1163
328.15 K, x2 = 0.5	714.52	1140
328.15 K, x2 = 0.6	703.55	1117
328.15 K, x2 = 0.7	690.44	1087
328.15 K, x2 = 0.8	674.25	1050
328.15 K, x2 = 0.9	653.04	1002
333.15 K, x2 = 0.1	740.37	1193
333.15 K, x2 = 0.2	734.36	1177
333.15 K, x2 = 0.3	727.88	1163
333.15 K, x2 = 0.4	720.01	1144
333.15 K, x2 = 0.5	710.8	1122
333.15 K, x2 = 0.6	699.74	1098
333.15 K, x2 = 0.7	686.47	1067
333.15 K, x2 = 0.8	670.09	1030
333.15 K, x2 = 0.9	648.56	981
338.15 K, x2 = 0.1	–	1176
338.15 K, x2 = 0.2	–	1160
338.15 K, x2 = 0.3	–	1145
338.15 K, x2 = 0.4	–	1126
338.15 K, x2 = 0.5	–	1103
338.15 K, x2 = 0.6	–	1079
338.15 K, x2 = 0.7	–	1048
338.15 K, x2 = 0.8	–	1010
338.15 K, x2 = 0.9	–	960
343.15 K, x2 = 0.1	–	1158
343.15 K, x2 = 0.2	–	1142
343.15 K, x2 = 0.3	–	1127
343.15 K, x2 = 0.4	–	1108
343.15 K, x2 = 0.5	–	1084
343.15 K, x2 = 0.6	–	1060
343.15 K, x2 = 0.7	–	1029
343.15 K, x2 = 0.8	–	990
343.15 K, x2 = 0.9	–	939
348.15 K, x2 = 0.1	–	1140
348.15 K, x2 = 0.2	–	1124
348.15 K, x2 = 0.3	–	1109
348.15 K, x2 = 0.4	–	1089
348.15 K, x2 = 0.5	–	1066
348.15 K, x2 = 0.6	–	1042
348.15 K, x2 = 0.7	–	1010
348.15 K, x2 = 0.8	–	971
348.15 K, x2 = 0.9	–	918
353.15 K, x2 = 0.1	–	1123
353.15 K, x2 = 0.2	–	1106
353.15 K, x2 = 0.3	–	1092
353.15 K, x2 = 0.4	–	1072
353.15 K, x2 = 0.5	–	1048
353.15 K, x2 = 0.6	–	1023
353.15 K, x2 = 0.7	–	991
353.15 K, x2 = 0.8	–	951
353.15 K, x2 = 0.9	–	898
358.15 K, x2 = 0.1	–	1106
358.15 K, x2 = 0.2	–	1089
358.15 K, x2 = 0.3	–	1074
358.15 K, x2 = 0.4	–	1054
358.15 K, x2 = 0.5	–	1030
358.15 K, x2 = 0.6	–	1005
358.15 K, x2 = 0.7	–	972
358.15 K, x2 = 0.8	–	932
358.15 K, x2 = 0.9	–	877
363.15 K, x2 = 0.1	–	1088
363.15 K, x2 = 0.2	–	1071
363.15 K, x2 = 0.3	–	1057
363.15 K, x2 = 0.4	–	1036
363.15 K, x2 = 0.5	–	1012
363.15 K, x2 = 0.6	–	986
363.15 K, x2 = 0.7	–	953
363.15 K, x2 = 0.8	–	912
363.15 K, x2 = 0.9	–	857
368.15 K, x2 = 0.1	–	1072
368.15 K, x2 = 0.2	–	1054
368.15 K, x2 = 0.3	–	1039
368.15 K, x2 = 0.4	–	1019
368.15 K, x2 = 0.5	–	995
368.15 K, x2 = 0.6	–	968
368.15 K, x2 = 0.7	–	935
368.15 K, x2 = 0.8	–	893
368.15 K, x2 = 0.9	–	837
373.15 K, x2 = 0.1	–	1055
373.15 K, x2 = 0.2	–	1037
373.15 K, x2 = 0.3	–	1022
373.15 K, x2 = 0.4	–	1002
373.15 K, x2 = 0.5	–	977
373.15 K, x2 = 0.6	–	950
373.15 K, x2 = 0.7	–	916
373.15 K, x2 = 0.8	–	874
373.15 K, x2 = 0.9	–	816
